# From ChEMBL document CHEMBL1201862, “PubChem BioAssay data set” (2004)
# Activity calls are given as the source filed them.
# What was measured:
# [1] = antimalarial activity against Dd2 parasites – SYBR Green fluorescence, erythrocytes, dry powder, set 2, dose response (AID 1159574); format: functional, cell-based
# [2] = TB: CFU replicating Measured in Microorganism System Using Imaging - 7108-05_Inhibitor_Dose_DryPowder_Activity_Set2.; format: functional
# Ephrin type-A receptor 4 = Ephrin type-A receptor 4 (Mus musculus, UniProt Q03137); test: EphA4 ligand-binding antagonists – biochemical, colorimetric, mouse EphA4, primary screen (AID 689); format: functional
# Ephrin type-A receptor 4, sequence (Q03137 whole entry): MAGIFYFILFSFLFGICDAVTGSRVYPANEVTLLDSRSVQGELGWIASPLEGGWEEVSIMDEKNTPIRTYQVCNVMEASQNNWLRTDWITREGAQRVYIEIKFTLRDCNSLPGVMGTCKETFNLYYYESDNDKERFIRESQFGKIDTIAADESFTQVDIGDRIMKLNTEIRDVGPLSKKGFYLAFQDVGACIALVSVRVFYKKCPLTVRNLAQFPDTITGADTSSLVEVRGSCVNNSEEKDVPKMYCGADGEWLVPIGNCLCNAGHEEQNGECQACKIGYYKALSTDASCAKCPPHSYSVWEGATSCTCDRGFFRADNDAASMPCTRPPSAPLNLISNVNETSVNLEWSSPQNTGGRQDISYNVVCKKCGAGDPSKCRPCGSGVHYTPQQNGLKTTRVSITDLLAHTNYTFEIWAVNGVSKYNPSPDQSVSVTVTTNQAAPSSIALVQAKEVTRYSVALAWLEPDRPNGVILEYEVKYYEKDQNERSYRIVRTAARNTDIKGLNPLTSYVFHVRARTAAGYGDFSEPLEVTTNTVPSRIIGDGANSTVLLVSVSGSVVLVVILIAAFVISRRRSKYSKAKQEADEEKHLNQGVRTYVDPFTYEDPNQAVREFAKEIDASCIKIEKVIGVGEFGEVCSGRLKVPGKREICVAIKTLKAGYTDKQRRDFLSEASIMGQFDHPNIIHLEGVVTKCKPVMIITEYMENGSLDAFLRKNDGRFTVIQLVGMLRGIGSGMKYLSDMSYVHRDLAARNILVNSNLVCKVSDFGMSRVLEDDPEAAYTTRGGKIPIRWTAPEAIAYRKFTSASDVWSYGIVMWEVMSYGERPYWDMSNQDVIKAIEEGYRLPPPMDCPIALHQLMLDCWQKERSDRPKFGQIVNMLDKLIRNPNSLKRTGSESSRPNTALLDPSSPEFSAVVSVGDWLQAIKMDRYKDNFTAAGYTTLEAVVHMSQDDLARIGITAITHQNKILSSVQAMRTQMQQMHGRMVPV
# [3] = target: T1, Sphingosine 1-phosphate receptor 4 (Homo sapiens, UniProt O95977); test: Late stage fluorescence dose response cell-based screening assay for antagonists of the Sphingosine 1-Phosphate Receptor 4 (S1P4). [Related pubchem assays: 1524 (Confirmation screen (S1P4 antagonists).), 1510 (Primary screen (S1P4 antagonists).), 1853 (Summary AID (S1P4 antagonists).), 1692 (Dose response screen (S1P4 antagonists).)]; format: functional
# T1 sequence (O95977 whole entry): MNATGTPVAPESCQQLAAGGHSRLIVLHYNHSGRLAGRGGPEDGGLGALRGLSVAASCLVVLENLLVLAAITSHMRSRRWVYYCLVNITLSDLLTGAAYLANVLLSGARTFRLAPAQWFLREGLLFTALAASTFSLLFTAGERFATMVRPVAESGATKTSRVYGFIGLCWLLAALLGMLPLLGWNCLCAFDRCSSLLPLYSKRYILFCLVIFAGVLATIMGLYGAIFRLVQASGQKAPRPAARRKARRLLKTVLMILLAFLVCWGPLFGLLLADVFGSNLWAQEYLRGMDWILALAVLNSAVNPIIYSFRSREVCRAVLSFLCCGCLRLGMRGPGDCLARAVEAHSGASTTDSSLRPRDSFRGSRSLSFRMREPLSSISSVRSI
# [4] = target: Sphingosine 1-phosphate receptor 5 (Homo sapiens, UniProt Q9H228); test: Late stage counterscreen assay for S1P4 antagonists: Fluorescence dose response cell-based screening assay for antagonists of the Sphingosine 1-Phosphate Receptor 5 (S1P5). [Related pubchem assays (depositor defined):AID1510, AID1524, AID1692, AID1853, AID2332, AID489009, AID489017]; format: functional
# Sphingosine 1-phosphate receptor 5, sequence (Q9H228 whole entry): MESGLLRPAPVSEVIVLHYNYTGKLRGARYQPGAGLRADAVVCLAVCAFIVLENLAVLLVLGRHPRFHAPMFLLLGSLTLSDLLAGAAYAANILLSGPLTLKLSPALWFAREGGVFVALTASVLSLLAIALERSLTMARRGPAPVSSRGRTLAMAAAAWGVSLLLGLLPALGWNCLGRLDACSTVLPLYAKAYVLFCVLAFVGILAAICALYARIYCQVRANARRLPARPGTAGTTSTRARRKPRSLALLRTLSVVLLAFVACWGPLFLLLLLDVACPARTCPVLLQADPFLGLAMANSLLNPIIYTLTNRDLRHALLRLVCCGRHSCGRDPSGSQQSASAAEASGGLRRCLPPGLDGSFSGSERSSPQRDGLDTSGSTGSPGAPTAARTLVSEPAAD
# [5] = target: T2, Sphingosine 1-phosphate receptor 1 (Homo sapiens, UniProt P21453); test: Late stage counterscreen assay for S1P4 antagonists: Fluorescence dose response cell-based screening assay for antagonists of the Sphingosine 1-Phosphate Receptor 1 (S1P1). [Related pubchem assays (depositor defined):AID1510, AID1524, AID1692, AID1853, AID2332, AID489009, AID489017]; format: functional
# T2 sequence (P21453 whole entry): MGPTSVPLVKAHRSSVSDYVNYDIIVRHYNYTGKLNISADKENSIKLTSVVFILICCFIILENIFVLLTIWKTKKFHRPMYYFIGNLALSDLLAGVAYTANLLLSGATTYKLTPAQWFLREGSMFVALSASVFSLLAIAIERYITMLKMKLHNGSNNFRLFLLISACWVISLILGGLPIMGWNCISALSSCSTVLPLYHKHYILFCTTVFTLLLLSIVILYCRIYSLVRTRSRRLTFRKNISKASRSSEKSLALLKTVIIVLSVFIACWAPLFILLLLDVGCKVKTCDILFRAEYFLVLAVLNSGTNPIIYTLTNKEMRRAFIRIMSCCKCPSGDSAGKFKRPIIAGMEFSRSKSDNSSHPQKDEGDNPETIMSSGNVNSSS
# [6] = target: Sphingosine 1-phosphate receptor 2 (Homo sapiens, UniProt O95136); test: Late stage counterscreen assay for S1P4 antagonists: Fluorescence dose response cell-based screening assay for antagonists of the Sphingosine 1-Phosphate Receptor 2 (S1P2). [Related pubchem assays (depositor defined):AID1510, AID1524, AID1692, AID1853, AID2332, AID489009, AID489017]; format: functional
# Sphingosine 1-phosphate receptor 2, sequence (O95136 whole entry): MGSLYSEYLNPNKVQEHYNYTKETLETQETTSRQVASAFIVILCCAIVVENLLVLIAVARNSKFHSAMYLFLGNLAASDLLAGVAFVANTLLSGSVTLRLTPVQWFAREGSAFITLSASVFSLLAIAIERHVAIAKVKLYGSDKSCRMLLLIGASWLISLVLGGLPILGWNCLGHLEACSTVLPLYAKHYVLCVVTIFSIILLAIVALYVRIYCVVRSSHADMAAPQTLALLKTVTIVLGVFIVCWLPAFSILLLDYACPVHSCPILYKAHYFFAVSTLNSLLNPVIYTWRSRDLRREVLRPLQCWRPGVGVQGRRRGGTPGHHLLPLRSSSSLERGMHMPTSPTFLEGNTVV
# [7] = target: T2, Sphingosine 1-phosphate receptor 1; format: functional
# [8] = target: T1, Sphingosine 1-phosphate receptor 4; test: Fluorescence dose response cell-based high throughput screening assay for antagonists of the Sphingosine 1-Phosphate Receptor 4 (S1P4). [Related pubchem assays: 1524 (Confirmation in triplicates.), 1510 (Primary screen.)]; format: functional
# [9] = target: Sphingosine 1-phosphate receptor 3 (Homo sapiens, UniProt Q99500); test: Late stage counterscreen assay for S1P4 antagonists: Fluorescence dose response cell-based screening assay for antagonists of the Sphingosine 1-Phosphate Receptor 3 (S1P3). [Related pubchem assays (depositor defined):AID1510, AID1524, AID1692, AID1853, AID2332, AID489009, AID489017]; format: functional
# Sphingosine 1-phosphate receptor 3, sequence (Q99500 whole entry, the tested form may be a part): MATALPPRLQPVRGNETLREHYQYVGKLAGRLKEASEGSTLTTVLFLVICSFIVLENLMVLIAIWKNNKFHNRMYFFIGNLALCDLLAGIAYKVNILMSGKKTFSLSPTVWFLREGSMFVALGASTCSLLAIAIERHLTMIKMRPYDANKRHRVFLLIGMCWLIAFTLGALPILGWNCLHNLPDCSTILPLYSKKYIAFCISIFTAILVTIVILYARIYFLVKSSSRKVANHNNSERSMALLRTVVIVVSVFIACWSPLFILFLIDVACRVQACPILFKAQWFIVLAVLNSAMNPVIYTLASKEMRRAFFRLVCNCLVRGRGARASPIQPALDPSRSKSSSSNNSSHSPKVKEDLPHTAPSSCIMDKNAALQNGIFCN
# [10] = target: T3, Polyadenylate-binding protein 1 (Homo sapiens, UniProt P11940); test: MLLE domain peptide-binding blockers, IC50 – biochemical, fluorescence polarization, FITC-PAM2 peptide, dose response (AID 602259); format: functional; details: read-out: IC50_Mean
# T3 sequence (P11940 whole entry, the tested form may be a part): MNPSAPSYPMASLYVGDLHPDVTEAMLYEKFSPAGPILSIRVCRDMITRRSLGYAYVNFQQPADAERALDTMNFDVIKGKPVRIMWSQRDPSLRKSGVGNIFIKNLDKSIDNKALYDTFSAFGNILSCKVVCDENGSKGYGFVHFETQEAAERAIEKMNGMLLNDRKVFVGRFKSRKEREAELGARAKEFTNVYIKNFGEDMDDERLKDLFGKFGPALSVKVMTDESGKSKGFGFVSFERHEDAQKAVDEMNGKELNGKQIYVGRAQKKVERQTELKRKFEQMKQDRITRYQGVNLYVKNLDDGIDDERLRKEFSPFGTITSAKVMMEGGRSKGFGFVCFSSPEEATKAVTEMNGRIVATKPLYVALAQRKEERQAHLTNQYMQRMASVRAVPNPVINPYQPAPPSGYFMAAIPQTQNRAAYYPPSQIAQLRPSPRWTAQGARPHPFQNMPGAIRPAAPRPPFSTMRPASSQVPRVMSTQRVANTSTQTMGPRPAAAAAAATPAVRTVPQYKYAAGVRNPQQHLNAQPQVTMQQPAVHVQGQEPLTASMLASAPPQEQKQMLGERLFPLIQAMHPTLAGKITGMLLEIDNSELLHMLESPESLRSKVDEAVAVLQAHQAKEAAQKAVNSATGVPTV
# [11] = target: Tyrosyl-DNA phosphodiesterase 2 (Homo sapiens, UniProt O95551); test: potency against TDP2 phosphodiesterase activity – biochemical, epi absorbance, IC50, dose response (AID 743297)
# Caspase-8 = Caspase-8 (Homo sapiens, UniProt Q14790); test: inhibitors of purified CASP8 protease – biochemical, Z-IETD-R110 fluorescence, cherry-picked samples, selectivity assay for caspase-6 inhibitor project, dose response (AID 743294)
# Caspase-7 = Caspase-7 (Homo sapiens, UniProt P55210); test: caspase-7 enzyme inhibition, selectivity check – biochemical, DEVD-R110 fluorescence, cherry-pick, selectivity assay for caspase-6 inhibitor project, dose response (AID 743295); format: functional
# Caspase-7, sequence (P55210 24-198 limits assumed): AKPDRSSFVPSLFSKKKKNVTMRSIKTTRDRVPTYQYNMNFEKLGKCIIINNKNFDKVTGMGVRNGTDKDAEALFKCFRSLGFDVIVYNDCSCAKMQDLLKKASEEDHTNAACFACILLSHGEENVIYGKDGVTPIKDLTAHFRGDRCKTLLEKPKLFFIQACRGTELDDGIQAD
# Caspase-7, sequence (P55210 207-303 limits assumed): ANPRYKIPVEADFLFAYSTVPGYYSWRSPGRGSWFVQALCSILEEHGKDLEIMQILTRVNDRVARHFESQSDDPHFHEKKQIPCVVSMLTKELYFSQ
# [12] = target: T3, Polyadenylate-binding protein 1; test: MLLE binding blockers, Cy5 peptide tracer – biochemical, fluorescence polarization, Cy5-PAM2 peptide, secondary, miRNA deadenylation inhibitor project, dose response (AID 602260); format: functional; details: read-out: IC50_Mean
# Caspase-3 = target: T4, Caspase-3 (Homo sapiens, UniProt P42574); test: human caspase-3 protease activity blockade – biochemical, fluorescence, cherry-picked samples, selectivity assay for caspase-6 allosteric inhibitor project, dose response (AID 743291)
# T4 sequence (P42574 whole entry): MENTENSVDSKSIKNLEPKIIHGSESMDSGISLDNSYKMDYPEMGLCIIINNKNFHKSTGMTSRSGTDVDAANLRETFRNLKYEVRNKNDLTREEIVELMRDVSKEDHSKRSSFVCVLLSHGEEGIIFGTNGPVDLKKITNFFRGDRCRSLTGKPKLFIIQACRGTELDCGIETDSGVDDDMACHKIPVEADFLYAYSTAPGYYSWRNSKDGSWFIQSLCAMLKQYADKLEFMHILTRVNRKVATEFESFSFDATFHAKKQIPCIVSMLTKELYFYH
# Caspase-6 = Caspase-6 (Homo sapiens, UniProt P55212); test: inhibition of CASP6 peptide cleavage – biochemical, VEID-R110 fluorescence, cherry-pick, dose response (AID 720632)
# Caspase-6, sequence (P55212 24-179 limits assumed): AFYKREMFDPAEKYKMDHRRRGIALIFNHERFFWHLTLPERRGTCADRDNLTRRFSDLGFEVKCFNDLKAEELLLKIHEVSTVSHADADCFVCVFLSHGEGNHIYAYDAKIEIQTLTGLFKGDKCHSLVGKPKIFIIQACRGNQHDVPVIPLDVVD
# Caspase-6, sequence (P55212 194-293 limits assumed): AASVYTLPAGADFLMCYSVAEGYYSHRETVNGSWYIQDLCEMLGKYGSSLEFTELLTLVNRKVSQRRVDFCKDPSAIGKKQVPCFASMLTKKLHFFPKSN
# Caspase-9 = Caspase-9 (Homo sapiens, UniProt P55211); test: inhibitors of purified CASP9 protease – biochemical, fluorescence, plate reader, cherry-picked samples, selectivity assay for caspase-6 inhibitor project, dose response (AID 743293)
# Caspase-9, sequence (P55211 1-315 limits assumed): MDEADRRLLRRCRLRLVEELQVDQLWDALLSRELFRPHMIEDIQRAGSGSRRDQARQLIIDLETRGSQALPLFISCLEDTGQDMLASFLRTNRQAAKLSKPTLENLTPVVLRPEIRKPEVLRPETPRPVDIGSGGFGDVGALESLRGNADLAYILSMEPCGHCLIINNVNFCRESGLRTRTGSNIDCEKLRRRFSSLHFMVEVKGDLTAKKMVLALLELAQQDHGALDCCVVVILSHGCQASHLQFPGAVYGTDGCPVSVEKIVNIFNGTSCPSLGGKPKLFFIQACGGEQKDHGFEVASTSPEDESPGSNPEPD
# Caspase-9, sequence (P55211 331-416 limits assumed): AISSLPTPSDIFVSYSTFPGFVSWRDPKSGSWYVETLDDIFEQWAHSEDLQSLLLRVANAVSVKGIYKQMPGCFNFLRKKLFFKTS
# Protein skinhead-1 = target: T5, Protein skinhead-1 (Caenorhabditis elegans, UniProt P34707); format: functional
# T5 sequence (P34707 whole entry): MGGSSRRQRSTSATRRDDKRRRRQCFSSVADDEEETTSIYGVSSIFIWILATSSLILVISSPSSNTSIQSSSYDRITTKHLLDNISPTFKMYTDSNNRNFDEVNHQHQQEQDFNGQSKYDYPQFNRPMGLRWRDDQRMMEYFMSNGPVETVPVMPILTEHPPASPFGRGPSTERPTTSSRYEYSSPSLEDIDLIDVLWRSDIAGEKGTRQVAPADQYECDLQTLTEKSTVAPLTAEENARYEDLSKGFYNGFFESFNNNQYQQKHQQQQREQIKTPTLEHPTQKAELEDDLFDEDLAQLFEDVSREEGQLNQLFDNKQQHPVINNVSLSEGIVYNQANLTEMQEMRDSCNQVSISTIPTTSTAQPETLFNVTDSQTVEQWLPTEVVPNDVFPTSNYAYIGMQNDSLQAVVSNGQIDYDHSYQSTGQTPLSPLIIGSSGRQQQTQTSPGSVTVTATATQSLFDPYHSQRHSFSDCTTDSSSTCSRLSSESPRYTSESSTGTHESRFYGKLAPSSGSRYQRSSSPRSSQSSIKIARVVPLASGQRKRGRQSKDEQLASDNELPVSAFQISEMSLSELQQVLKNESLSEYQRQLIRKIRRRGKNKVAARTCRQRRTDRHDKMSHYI
# [13] = IC50 of insulin release inhibition, rat insulinoma INS-1E line, 5 mM glucose, cell-based (AID 1117331); format: functional
# NADPH oxidase 1 = NADPH oxidase 1 (Homo sapiens, UniProt Q9Y5S8); test: Late-stage luminescence-based cell-based dose response assay to identify inhibitors of NADPH oxidase 1 (NOX1): Synthesized analogs 2.; format: functional
# NADPH oxidase 1, sequence (Q9Y5S8 whole entry): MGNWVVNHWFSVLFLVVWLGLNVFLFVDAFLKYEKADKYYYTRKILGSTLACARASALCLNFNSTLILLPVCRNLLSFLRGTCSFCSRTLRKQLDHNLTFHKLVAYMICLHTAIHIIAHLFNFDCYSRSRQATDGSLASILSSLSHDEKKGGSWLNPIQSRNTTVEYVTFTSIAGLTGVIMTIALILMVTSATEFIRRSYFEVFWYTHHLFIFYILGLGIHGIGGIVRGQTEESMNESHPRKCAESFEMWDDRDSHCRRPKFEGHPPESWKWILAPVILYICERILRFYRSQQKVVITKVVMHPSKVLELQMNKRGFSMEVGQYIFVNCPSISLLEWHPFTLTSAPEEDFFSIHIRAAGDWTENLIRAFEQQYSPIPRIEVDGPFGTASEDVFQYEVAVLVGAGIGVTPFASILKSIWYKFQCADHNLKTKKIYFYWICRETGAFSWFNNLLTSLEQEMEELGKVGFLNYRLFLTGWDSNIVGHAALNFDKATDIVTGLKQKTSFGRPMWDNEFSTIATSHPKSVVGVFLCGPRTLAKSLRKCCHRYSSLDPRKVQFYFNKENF
structure (smiles),measurement,setting,value
COc1ccc(S(=O)(=O)N(C)C[C@H]2OCc3ccccc3-c3c(n(C)c4ccccc34)C(=O)N([C@@H](C)CO)C[C@H]2C)cc1,AC50,[1],5.13 µM (active)
Cn1c(NC(=O)c2ccccc2)nc2c(F)cccc21,AbsAC90,[2],160.65 µM
CCn1c2ccc(Cl)cc2c2nc3ccccc3nc21,IC50,Ephrin type-A receptor 4,18.2 µM (active)
Cc1cc(NC(=O)/C=C/c2ccccc2)c(C(C)C)cc1O,IC50,[3],0.338 µM (active)
same,IC50,[4],> 25 µM (inactive)
same,IC50,[5],> 25 µM (inactive)
same,IC50,[6],> 25 µM (inactive)
same,IC50,[7],> 49.8 µM (not active)
same,IC50,[8],0.852 µM (active)
same,IC50,[9],> 25 µM (inactive)
Cn1c(=O)c2c(-c3ccccc3)n(-c3ccc(N)cc3)cc2n(C)c1=O,IC50,[10],38.4 µM (inactive)
same,IC50,[11],> 128 µM (inactive)
same,AC50,Caspase-8,> 70 µM (inactive)
same,AC50,Caspase-7,8.62 µM (active)
same,IC50,[12],> 66 µM (inactive)
same,AC50,Caspase-3,19.2 µM (active)
same,AC50,Caspase-6,1.07 µM (active)
same,AC50,Caspase-9,69.8 µM (active)
same,IC50,Protein skinhead-1,73.6 µM (inactive)
CN1CCN2c3ccccc3Cc3ccccc3C2C1 (stereo unspecified) [MIANSERIN],IC50,[13],> 11.1 µM (inactive)
CN1c2ccc(N=[N+]=[N-])cc2Sc2cc(N=[N+]=[N-])ccc21,IC50,NADPH oxidase 1,7.05 µM (active)
